Measurements from patent US12139508B2, “Steroid derivative regulators, method for preparing the same, and uses thereof” (JIANGSU HANSOH PHARMACEUTICAL GROUP CO., LTD., priority 2018, dated 2024).
Where two headings read alike, the source gives them in different places.

Columns and labels:
GABA-A receptor = test: 35S-TBPS binding assay (GABAA receptor binding ability test); design: species or system Sprague-Dawley rat; details: rat cerebral cortex cell membrane, 5 μM GABA, 2 nM 35S-TBPS; read-out: 35S-TBPS bindng test: IC50 on inhibiting the TBPS binding activity
Experimental: 1.2 Experimental Procedures 1.2.1 Extraction of Cerebral Cortex Cell Membrane:
1. The cerebral cortex of male Sprague-Dawley rat was isolated.
2. A pre-chilled 0.32 M sucrose solution (one tablet of protease inhibitor was added per 100 ml) was added to the cerebral cortex (the volume of sucrose solution was 10 times the volume of the cerebral cortex). The mixture was crushed with a 50 mL glass tissue homogenizer in batches and mixed well.
3. The mixture was centrifuged at 1500 g, 4° C. for 10 minutes, and the supernatant was collected.
4. The mixture was centrifuged at 20000 g, 4° C. for 30 minutes, and the supernatant was discarded.
5. The precipitate was resuspended with the pre-chilled phosphate buffer saline (PBS) (one tablet of protease inhibitor was added per 100 ml). An average of 4 ml of PBS was added per rat, and the mixture was mixed well by a glass tissue homogenizer.
6. The mixture was centrifuged at 10000 g, 4° C. for 10 minutes, and the supernatant was discarded.
7. Steps 5 and 6 were repeated three times.
8. Finally, the precipitate was resuspended with 4 volumes of PBS. The resulting solution was dispensed, frozen in liquid nitrogen, and stored at −80° C.
9. The protein concentration was measured by the bicinchoninic acid (BCA) method.
1.2.2 ^35S-TBPS Binding Assay
1. 230 μL of PBS was added to each well of a well plate with 1.1 ml volume.
2. 60 μL of the cerebral cortex cell membrane (5 μg/μL) solution was added to each well, and the mixture was mixed well.
3. The test compound (3 μL per well) was added, and the plate was incubated at 25° C. for 5 minutes. The DMSO concentration was 1%. The initial compound concentration was 1 μM, and a 3-fold dilution in gradient was carried out to obtain a total of 8 gradients and 2 replicates. 1% DMSO was used as a negative control, and 10 μM P026-2 was used as a positive control.
4. GABA was added at a final concentration of 5 μM, and incubated at 25° C. for 5 minutes. 1 mM GABA solution was formulated, and 1.5 μL of the solution was added to each well.
5. ^35S-TBPS was added at a final concentration of 2 nM. The concentration of isotope mother solution was 9.7 μM. After dilution with PBS for 100 times, 6 μL of the diluted isotope solution was added to each well.
6. The plate was incubated at 4° C. for 20 hours.
7. The FilterMate GF/C plate was pre-treated with 0.5% PEI, and incubated at 4° C. for 1 hour.
8. The FilterMate GF/C plate was washed with Universal Harvester twice, 50 ml PBS each time.
9. The reaction solution was transferred to the GF/C plate, and each well was washed 4 times with 900 μL of PBS.
10. The washed GF/C plate was placed at 55° C. and dried for 10 minutes.
11. 40 μL of scintillation solution was added to each well, and the CPM value was read with TopCount.
1.2.3 Experimental Data Processing Method:
In the experiment, the CPM (counts per minute) value was read with TopCount. According to the readings of the High control (DMSO) and the Low control ([…] of the positive compound) experimental groups, the […] inhibition was calculated based on the following formula: % Inhibition=100×(CPMHigh control−CPMSample)/(CPMHigh control−CPMLow control)
The IC50 of the compound was calculated according to the following 4-parameter nonlinear logic formula: Y=Bottom+(Top−Bottom)/(1+10^((Log IC50−X)*Hill Slope)),
wherein: • X represents the log of compound concentration, • Y represents the 0 Inhibition.
The effect of the compound of the present invention on the TBPS binding activity was determined by the above test, and the measured IC50 values are shown in Table 1.

[1] = Pharmacokinetic assay in Balb/c mice (plasma and brain tissue); assay type: in vivo; details: mouse, po, 5 mg/kg p.o., male Balb/c mice; for AUC(0-t): read-out: Area under curve AUC0-t; for AUC(0-inf): read-out: Area under curve AUC0-∞; for half-life: read-out: Half-life t1/2 (converted); for MRT: read-out: Mean residence time MRT; for Tmax: read-out: Peak time tmax; for Cmax: read-out: Plasma concentration Cmax
Experimental: Balb/c mice were used as test animals. The pharmacokinetic behavior in mice (plasma and brain tissue) of the compounds of Examples 2, 3, 5, 6, 9, 13, 59, 60, 61, 63, 71-74, 81, 103, 130, 134, 135, 137, 138, 140, 141, 143, 145 and 146 orally administered at a dose of 5 mg/kg was studied.
Each group had 24 male Balb/c mice. After an overnight fast, Balb/c mice were administered p.o. with the test compound at an administration dose of 5 mg/kg and an administration volume of 10 mL/kg.
0.2 ml of blood was taken from the heart before administration and at 0, 0.5, 1, 2, 4, 6, 8 and 24 hours after administration. The samples were stored in EDTA-K2 tubes, and centrifuged for 6 minutes at 4° C., 6000 rpm to separate the plasma. The plasma samples were stored at −80° C. The mice were sacrificed with CO2, and the whole brain tissue was taken out, weighed, placed in a 2 mL centrifuge tube and stored at −80° C.
1) 160 μL of acetonitrile was added to 40 μL of the plasma sample for precipitation, and then the mixture was centrifuged for 5-20 minutes at 3500×g.
2) 90 μL of acetonitrile containing the internal standard (100 ng/mL) was added to 30 μL of the plasma and brain homogenate samples for precipitation, and then the mixture was centrifuged for 8 minutes at 13000 rpm.
3) 70 μL of the treated supernatant was taken and added to 70 μL of water, and mixed by vortex for 10 minutes. 20 μL of the mixture was taken to analyze the concentration of the test compound by LC/MS/MS. LC/MS/MS analysis instrument: AB Sciex API 4000 Qtrap.
• Liquid chromatography condition: Shimadzu LC-20AD pump. • Chromatographic column: Agilent ZORBAX™ XDB-C18 (50×2.1 mm, 3.5 μm) (note: Aglient ZORBAX™ is a kind of column used in the reverse HPLC); • Mobile phase: Eluent A was 0.10% formic acid in water, and Eluent B was acetonitrile. • Flow rate: 0.4 mL/min • Elution time: 0-4.0 minutes, the eluent is as follows:
The main parameters of pharmacokinetics were calculated by WinNonlin 6.1.

CC(=O)[C@H]1[C@H]2C[C@H]2[C@H]2[C@@H]3CC[C@@H]4C[C@](C)(O)CC[C@@H]4[C@H]3CC[C@@]21C [Example 1, 1-((2R,4aS,4bR,6aS,7S,7aS,8aR,8bR,8cR,10aR)-2-Hydroxy-2,6a-dimethyloctadecahydrocyclopropa[4,5]cyclopenta[1,2-a]phenanthren-7-yl)ethan-1-one]
IC50 (GABA-A receptor): 15 nM

C[C@@]1(O)CC[C@H]2[C@H](CC[C@@H]3[C@@H]2CC[C@@]2(C)[C@H]3[C@@H]3C[C@@H]3[C@@H]2C(=O)Cn2nccn2)C1 [Example 7, 1-((2R,4aS,4bR,6aS,7S,7aS,8aR,8bR,8cR,10aR)-2-Hydroxy-2,6a-dimethyloctadecahydrocyclopropa[4,5]cyclopenta[1,2-a]phenanthren-7-yl)-2-(2H-1,2,3-triazol-2-yl)ethan-1-one]
IC50 (GABA-A receptor): 14.7 nM

C[C@@]1(O)CC[C@H]2[C@H](CC[C@@H]3[C@@H]2CC[C@@]2(C)[C@H]3[C@@H]3C[C@@H]3[C@@H]2C(=O)Cn2ccnn2)C1 [Example 8, 1-((2R,4aS,4bR,6aS,7S,7aS,8aR,8bR,8cR,10aR)-2-Hydroxy-2,6a-dimethyloctadecahydrocyclopropa[4,5]cyclopenta[1,2-a]phenanthren-7-yl)-2-(1H-1,2,3-triazol-1-yl)ethan-1-one]
IC50 (GABA-A receptor): 42 nM

C[C@@]1(O)CC[C@H]2[C@H](CC[C@@H]3[C@@H]2CC[C@@]2(C)[C@H]3[C@@H]3C[C@@H]3[C@@H]2C(=O)Cn2cc(Cl)cn2)C1 [Example 18, 2-(4-Chloro-1H-pyrazol-1-yl)-1-((2R,4aS,4bR,6aS,7S,7aS,8aR,8bR,8cR,10aR)-2-hydroxy-2,6a-dimethyloctadecahydrocyclopropa[4,5]cyclopenta[1,2-a]phenanthren-7-yl)ethan-1-one]
IC50 (GABA-A receptor): 6.4 nM

C[C@@]1(O)CC[C@H]2[C@H](CC[C@@H]3[C@@H]2CC[C@@]2(C)[C@H]3[C@@H]3C[C@@H]3[C@@H]2C(=O)Cn2cc(C#N)c(C3CC3)n2)C1 [Example 33, 3-Cyclopropyl-1-(2-((2R,4aS,4bR,6aS,7S,7aS,8aR,8bR,8cR,10aR)-2-hydroxy-2,6a-dimethyloctadecahydrocyclopropa[4,5]cyclopenta[1,2-a]phenanthren-7-yl)-2-oxoethyl)-1H-pyrazole-4-carbonitrile]
IC50 (GABA-A receptor): 18.3 nM

C[C@@]1(O)CC[C@H]2[C@H](CC[C@@H]3[C@@H]2CC[C@@]2(C)[C@H]3[C@@H]3C[C@@H]3[C@@H]2C(=O)Cn2ncc(C#N)c2C2CC2)C1 [Example 34, 5-Cyclopropyl-1-(2-((2R,4aS,4bR,6aS,7S,7aS,8aR,8bR,8cR,10aR)-2-hydroxy-2,6a-dimethyloctadecahydrocyclopropa[4,5]cyclopenta[1,2-a]phenanthren-7-yl)-2-oxoethyl)-1H-pyrazole-4-carbonitrile]
IC50 (GABA-A receptor): 28.1 nM

Cc1nn(CC(=O)[C@H]2[C@H]3C[C@H]3[C@H]3[C@@H]4CC[C@@H]5C[C@](C)(O)CC[C@@H]5[C@H]4CC[C@@]32C)cc1C#N [Example 37A, 1-(2-((2R,4aS,4bR,6aS,7S,7aS,8aR,8bR,8cR,10aR)-2-Hydroxy-2,6a-dimethyloctadecahydrocyclopropa[4,5]cyclopenta[1,2-a]phenanthren-7-yl)-2-oxoethyl)-3-methyl-1H-pyrazole-4-carbonitrile]
IC50 (GABA-A receptor): 15.4 nM

Cc1c(C#N)cnn1CC(=O)[C@H]1[C@H]2C[C@H]2[C@H]2[C@@H]3CC[C@@H]4C[C@](C)(O)CC[C@@H]4[C@H]3CC[C@@]21C [Example 37B, 1-(2-((2R,4aS,4bR,6aS,7S,7aS,8aR,8bR,8cR,10aR)-2-Hydroxy-2,6a-dimethyloctadecahydrocyclopropa[4,5]cyclopenta[1,2-a]phenanthren-7-yl)-2-oxoethyl)-5-methyl-1H-pyrazole-4-carbonitrile]
IC50 (GABA-A receptor): 15.4 nM

CC[C@@H]1C[C@H](C(=O)Cn2cc(C#N)cn2)[C@@]2(C)CC[C@H]3[C@@H](CC[C@@H]4C[C@](C)(O)CC[C@@H]43)[C@H]12 [Example 81, 1-(2-((3R,5R,8R,9R,10S,13S,14S,15R,17S)-15-Ethyl-3-hydroxy-3,13-dimethylhexadecahydro-1H-cyclopenta[a]phenanthren-17-yl)-2-oxoethyl)-1H-pyrazole-4-carbonitrile]
AUC(0-t) ([1]; brain tissue): 1440 ng·h/mL
AUC(0-inf) ([1]; brain tissue): 2230 ng·h/mL
half-life ([1]; brain tissue): 5.59 h
MRT ([1]; brain tissue): 7.97 h
Tmax ([1]; brain tissue): 1 h
Cmax ([1]; brain tissue): 296 ng/mL
AUC(0-t) ([1]; plasma): 4640 ng·h/mL
AUC(0-inf) ([1]; plasma): 5920 ng·h/mL
half-life ([1]; plasma): 2.64 h
MRT ([1]; plasma): 4.96 h
Tmax ([1]; plasma): 1 h
Cmax ([1]; plasma): 1150 ng/mL

C[C@@]1(O)CC[C@H]2[C@H](CC[C@@H]3[C@@H]2CC[C@@]2(C)[C@H]3[C@@H]3C[C@@H]3[C@@H]2C(=O)Cn2cc([N+](=O)[O-])cn2)C1 [Example 103, 1-((2R,4aS,4bR,6aS,7S,7aS,8aR,8bR,8cR,10aR)-2-Hydroxy-2,6a-dimethyloctadecahydrocyclopropa[4,5]cyclopenta[1,2-a]phenanthren-7-yl)-2-(4-nitro-1H-pyrazol-1-yl)ethan-1-one]
AUC(0-t) ([1]; brain tissue): 1680 ng·h/mL
AUC(0-inf) ([1]; brain tissue): 1710 ng·h/mL
half-life ([1]; brain tissue): 1.12 h
MRT ([1]; brain tissue): 2.07 h
Tmax ([1]; brain tissue): 1 h
Cmax ([1]; brain tissue): 626 ng/mL
AUC(0-t) ([1]; plasma): 1030 ng·h/mL
AUC(0-inf) ([1]; plasma): 1060 ng·h/mL
half-life ([1]; plasma): 1.19 h
MRT ([1]; plasma): 2.12 h
Tmax ([1]; plasma): 1 h
Cmax ([1]; plasma): 386 ng/mL
